Assay results taken from PubChem BioAssay AID1919007 (Molecular Pharmacology Branch, DTP, NCI, 2023).
Values joined by “and” are separate entries in the source; they are usually repeats but may differ in a detail not shown here. Equal values may be shown once.

Test system: A498 complex spheroids with HUVEC/MSC, growth
Assay: Anticancer human tumor A498 cell line growth inhibition [AhR];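 note: seven day exposure starting three days after spheroid seeding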;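 for viability, T/C: luminescence signal used as a surrogate for viable cells; luminescence viability scaled so 100% equals DMSO vehicle wells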
Conditions: for viability, T/C: stronger effect = lower value
In short: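 Agents were dosed in half-log steps down from roughly clinical Cmax, or from 10 microM where Cmax was unknown, alone and with AhR antagonists. Read-out: percent test/control growth of tumor spheroids containing HUVEC and MSC stromal cells.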

[1] = curve of first compound, second compound 0.1 µM
[2] = curve of first compound, second compound 0.316 µM
[3] = curve of first compound, second compound 1 µM
[4] = curve of first compound, second compound 3.16 µM
[5] = curve of first compound, second compound 10 µM
[6] = second compound 0.1 µM, first compound 0.0316 µM
[7] = second compound 0.1 µM, first compound 0.1 µM
[8] = second compound 0.1 µM, first compound 0.316 µM
[9] = second compound 0.1 µM, first compound 1 µM
[10] = second compound 0.1 µM, first compound 3.16 µM
[11] = second compound 0.1 µM, first compound 10 µM
[12] = second compound 0.316 µM, first compound 0.0316 µM
[13] = second compound 0.316 µM, first compound 0.1 µM
[14] = second compound 0.316 µM, first compound 0.316 µM
[15] = second compound 0.316 µM, first compound 1 µM
[16] = second compound 0.316 µM, first compound 3.16 µM
[17] = second compound 0.316 µM, first compound 10 µM
[18] = second compound 1 µM, first compound 0.0316 µM
[19] = second compound 1 µM, first compound 0.1 µM
[20] = second compound 1 µM, first compound 0.316 µM
[21] = second compound 1 µM, first compound 1 µM
[22] = second compound 1 µM, first compound 3.16 µM
[23] = second compound 1 µM, first compound 10 µM
[24] = second compound 3.16 µM, first compound 0.0316 µM
[25] = second compound 3.16 µM, first compound 0.1 µM
[26] = second compound 3.16 µM, first compound 0.316 µM
[27] = second compound 3.16 µM, first compound 1 µM
[28] = second compound 3.16 µM, first compound 3.16 µM
[29] = second compound 3.16 µM, first compound 10 µM
[30] = second compound 10 µM, first compound 0.0316 µM
[31] = second compound 10 µM, first compound 0.1 µM
[32] = second compound 10 µM, first compound 0.316 µM
[33] = second compound 10 µM, first compound 1 µM
[34] = second compound 10 µM, first compound 3.16 µM
[35] = second compound 10 µM, first compound 10 µM
[36] = second compound 0.1 µM, first compound 0.00316 µM
[37] = second compound 0.1 µM, first compound 0.01 µM
[38] = second compound 0.316 µM, first compound 0.00316 µM
[39] = second compound 0.316 µM, first compound 0.01 µM
[40] = second compound 1 µM, first compound 0.00316 µM
[41] = second compound 1 µM, first compound 0.01 µM
[42] = second compound 3.16 µM, first compound 0.00316 µM
[43] = second compound 3.16 µM, first compound 0.01 µM
[44] = second compound 10 µM, first compound 0.00316 µM
[45] = second compound 10 µM, first compound 0.01 µM

SMILES: CC1(C)CCC(CN2CCN(c3ccc(C(=O)NS(=O)(=O)c4ccc(NCC5CCOCC5)c([N+](=O)[O-])c4)c(Oc4cnc5[nH]ccc5c4)c3)CC2)=C(c2ccc(Cl)cc2)C1 + Cc1ccccc1N=Nc1ccc(NC(=O)c2ccnn2C)c(C)c1
- IC50 [1]: 8580 nM
- IC50 [2]: > 10000 nM
- IC50 [3]: 8780 nM
- IC50 [4]: > 10000 nM
- IC50 [5]: 8770 nM
- viability, T/C [6]: 88.7%
- viability, T/C [7]: 89.5%
- viability, T/C [8]: 87.9%
- viability, T/C [9]: 86.6%
- viability, T/C [10]: 76.8%
- viability, T/C [11]: 45.8%
- viability, T/C [12]: 99.9%
- viability, T/C [13]: 98.2%
- viability, T/C [14]: 95.6%
- viability, T/C [15]: 87.5%
- viability, T/C [16]: 75.9%
- viability, T/C [17]: 52.3%
- viability, T/C [18]: 84.7%
- viability, T/C [19]: 87.4%
- viability, T/C [20]: 83.6%
- viability, T/C [21]: 72%
- viability, T/C [22]: 66.5%
- viability, T/C [23]: 47.8%
- viability, T/C [24]: 83%
- viability, T/C [25]: 86.7%
- viability, T/C [26]: 91.3%
- viability, T/C [27]: 76.9%
- viability, T/C [28]: 66.7%
- viability, T/C [29]: 50.5%
- viability, T/C [30]: 88.3%
- viability, T/C [31]: 86.7%
- viability, T/C [32]: 84.6%
- viability, T/C [33]: 77.6%
- viability, T/C [34]: 78.5%
- viability, T/C [35]: 46%

SMILES: CC[C@@]1(O)C(=O)OCc2c1cc1n(c2=O)Cc2cc3c(CN(C)C)c(O)ccc3nc2-1 + CC(CO)NC(=O)c1cc(-c2ccc(Cl)cc2)nn(-c2cnn(C)c2)c1=O
- IC50 [1]: > 100 nM
- IC50 [2]: > 100 nM
- IC50 [3]: > 100 nM
- IC50 [4]: > 100 nM
- IC50 [5]: 75.7 nM
- viability, T/C (second compound 0.1 µM, first compound 0.000316 µM): 105%
- viability, T/C (second compound 0.1 µM, first compound 0.001 µM): 98.4%
- viability, T/C [36]: 103%
- viability, T/C [37]: 94.6%
- viability, T/C [6]: 86.7%
- viability, T/C [7]: 68.2%
- viability, T/C (second compound 0.316 µM, first compound 0.000316 µM): 93.2%
- viability, T/C (second compound 0.316 µM, first compound 0.001 µM): 102%
- viability, T/C [38]: 96.4%
- viability, T/C [39]: 82.4%
- viability, T/C [12]: 81.3%
- viability, T/C [13]: 64.8%
- viability, T/C (second compound 1 µM, first compound 0.000316 µM): 95.8%
- viability, T/C (second compound 1 µM, first compound 0.001 µM): 106%
- viability, T/C [40]: 100%
- viability, T/C [41]: 92.2%
- viability, T/C [18]: 76.9%
- viability, T/C [19]: 65.3%
- viability, T/C (second compound 3.16 µM, first compound 0.000316 µM): 92%
- viability, T/C (second compound 3.16 µM, first compound 0.001 µM): 87%
- viability, T/C [42]: 88.6%
- viability, T/C [43]: 71.1%
- viability, T/C [24]: 71.2%
- viability, T/C [25]: 60.1%
- viability, T/C (second compound 10 µM, first compound 0.000316 µM): 77%
- viability, T/C (second compound 10 µM, first compound 0.001 µM): 74.2%
- viability, T/C [44]: 76.6%
- viability, T/C [45]: 63.1%
- viability, T/C [30]: 57.1%
- viability, T/C [31]: 47.7%

SMILES: COc1cccc2c1C(=O)c1c(O)c3c(c(O)c1C2=O)CC(O)(C(=O)CO)CC3OC1CC(N)C(O)C(C)O1 (centres undefined) + Cc1cncc(-c2nc(NCCc3c[nH]c4ccccc34)c3ncn(C(C)C)c3n2)c1
- IC50 [1]: 266 nM
- IC50 [2]: 380 nM
- IC50 [3]: 175 nM
- IC50 [4]: < 31.6 nM
- IC50 [5]: < 31.6 nM
- viability, T/C [6]: 64.7%
- viability, T/C [7]: 57.1%
- viability, T/C [8]: 48.8%
- viability, T/C [9]: 20.3%
- viability, T/C [10]: 1.26%
- viability, T/C [11]: 0.76%
- viability, T/C [12]: 61.1%
- viability, T/C [13]: 65.6%
- viability, T/C [14]: 56.3%
- viability, T/C [15]: 15.4%
- viability, T/C [16]: 1.1%
- viability, T/C [17]: 0.72%
- viability, T/C [18]: 58.6%
- viability, T/C [19]: 55.9%
- viability, T/C [20]: 43.1%
- viability, T/C [21]: 10.3%
- viability, T/C [22]: 1.14%
- viability, T/C [23]: 0.7%
- viability, T/C [24]: 48.8%
- viability, T/C [25]: 50.7%
- viability, T/C [26]: 37.7%
- viability, T/C [27]: 2.21%
- viability, T/C [28]: 1.26%
- viability, T/C [29]: 0.84%
- viability, T/C [30]: 5.86%
- viability, T/C [31]: 6.1%
- viability, T/C [32]: 9.17%
- viability, T/C [33]: 0.29%
- viability, T/C [34]: 0.94%
- viability, T/C [35]: 0.55%

SMILES: CC1COCCN1c1cc(C2(S(C)(=N)=O)CC2)nc(-c2ccnc3[nH]ccc23)n1 (centres undefined) + Cc1ccccc1N=Nc1ccc(NC(=O)c2ccnn2C)c(C)c1
- IC50 [1]: 2510 nM
- IC50 [2]: 2070 nM
- IC50 [3]: 1820 nM
- IC50 [4]: 1880 nM
- IC50 [5]: 2030 nM
- viability, T/C [6]: 84.6%
- viability, T/C [7]: 85.4%
- viability, T/C [8]: 84.3%
- viability, T/C [9]: 66%
- viability, T/C [10]: 46.6%
- viability, T/C [11]: 23.2%
- viability, T/C [12]: 101%
- viability, T/C [13]: 90.5%
- viability, T/C [14]: 88.3%
- viability, T/C [15]: 68.1%
- viability, T/C [16]: 38.9%
- viability, T/C [17]: 25.7%
- viability, T/C [18]: 81.7%
- viability, T/C [19]: 78.2%
- viability, T/C [20]: 82.2%
- viability, T/C [21]: 61.7%
- viability, T/C [22]: 38.2%
- viability, T/C [23]: 21.2%
- viability, T/C [24]: 83%
- viability, T/C [25]: 82.4%
- viability, T/C [26]: 77.2%
- viability, T/C [27]: 64%
- viability, T/C [28]: 38.5%
- viability, T/C [29]: 24.2%
- viability, T/C [30]: 82.6%
- viability, T/C [31]: 81.5%
- viability, T/C [32]: 78.7%
- viability, T/C [33]: 67.8%
- viability, T/C [34]: 39%
- viability, T/C [35]: 25%

SMILES: Nc1ccn(C2OC(CO)C(O)C2(F)F)c(=O)n1 (centres undefined)
- viability, T/C (compound 0.0316 µM): 30.9% and 36.6% and 26.1%
- viability, T/C (compound 0.1 µM): 35.4% and 37.9% and 25.6%
- viability, T/C (compound 0.316 µM): 50.1% and 45.6% and 30.7%
- viability, T/C (compound 1 µM): 43% and 49.6% and 32.6%
- viability, T/C (compound 3.16 µM): 40.7% and 51.3% and 33%
- viability, T/C (compound 10 µM): 42.1% (2×) and 29.6%
- IC50 (curve of compound): < 31.6 nM

SMILES: Nc1ncn(C2CC(O)C(CO)S2)c(=O)n1 (centres undefined)
- viability, T/C (compound 0.000949 µM): 100% and 102% and 109%
- viability, T/C (compound 0.003 µM): 99.7% and 106% and 114%
- viability, T/C (compound 0.00949 µM): 94.9% and 101% and 108%
- viability, T/C (compound 0.03 µM): 97.8% and 105% and 96%
- viability, T/C (compound 0.0949 µM): 79.2% and 95.2% and 85%
- viability, T/C (compound 0.3 µM): 81% and 89.7% and 68.3%
- IC50 (curve of compound): > 300 nM

SMILES: Nc1ncn(C2CC(O)C(CO)O2)c(=O)n1 (centres undefined) + Cc1cncc(-c2nc(NCCc3c[nH]c4ccccc34)c3ncn(C(C)C)c3n2)c1
- IC50 [1]: > 1000 nM
- IC50 [2]: > 1000 nM
- IC50 [3]: > 1000 nM
- IC50 [4]: > 1000 nM
- IC50 [5]: < 3.16 nM
- viability, T/C [36]: 83.2%
- viability, T/C [37]: 93.2%
- viability, T/C [6]: 88.5%
- viability, T/C [7]: 85.4%
- viability, T/C [8]: 75%
- viability, T/C [9]: 70.1%
- viability, T/C [38]: 90.3%
- viability, T/C [39]: 94.5%
- viability, T/C [12]: 92.5%
- viability, T/C [13]: 88.5%
- viability, T/C [14]: 83.2%
- viability, T/C [15]: 81.9%
- viability, T/C [40]: 85.4%
- viability, T/C [41]: 86.4%
- viability, T/C [18]: 85%
- viability, T/C [19]: 79.8%
- viability, T/C [20]: 81%
- viability, T/C [21]: 76%
- viability, T/C [42]: 61.5%
- viability, T/C [43]: 65.8%
- viability, T/C [24]: 71.1%
- viability, T/C [25]: 60.6%
- viability, T/C [26]: 62.8%
- viability, T/C [27]: 63.4%
- viability, T/C [44]: 4.02%
- viability, T/C [45]: 3.97%
- viability, T/C [30]: 6.07%
- viability, T/C [31]: 3.94%
- viability, T/C [32]: 4.34%
- viability, T/C [33]: 4.63%
